What all share (assay): relative viability (nuclei count vs DMSO), 5 days (fraction); higher = more cells survive
Compound in the experiment “Carboplatin + Alpelisib”: C1CC(C1)(C(=O)O)C(=O)O.[NH2-].[NH2-].[Pt+2] [Carboplatin] + Cc1nc(NC(=O)N2CCC[C@H]2C(N)=O)sc1-c1ccnc(C(C)(C)C(F)(F)F)c1 [Alpelisib] (partner 2 µM)
In a few lines: (§1)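 Relative viability divides the nuclei count in treated wells by that in vehicle wells. Lung cancer cell lines were seeded in 1536-well plates, dosed by pin tool the next day, and fixed and stained after 5 days in one step with final 0.05% Triton X-100, 1% formaldehyde and 1 ug/ml Hoechst. Dosing was a single drug or a fixed anchor-drug dose plus five library-drug doses (not always all listed) in √10 steps, and values are medians of duplicate plates imaged at 4×.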

Compound in the experiment “Carboplatin + Olaparib”: C1CC(C1)(C(=O)O)C(=O)O.[NH2-].[NH2-].[Pt+2] [Carboplatin] + O=C(c1cc(Cc2n[nH]c(=O)c3ccccc23)ccc1F)N1CCN(C(=O)C2CC2)CC1 [Olaparib] (partner 8 µM)
In a few lines: as §1

Compound in the experiment “GSK126 + Lapatinib”: CC[C@H](C)N1C=C(C2=C(C=C(C=C21)C3=CN=C(C=C3)N4CCNCC4)C(=O)NCC5=C(C=C(NC5=O)C)C)C [GSK126] + CS(=O)(=O)CCNCc1ccc(-c2ccc3ncnc(Nc4ccc(OCc5cccc(F)c5)c(Cl)c4)c3c2)o1 [Lapatinib] (partner 2 µM)
In a few lines: as §1

Compound in the experiment “GSK126 + Trametinib”: CC[C@H](C)N1C=C(C2=C(C=C(C=C21)C3=CN=C(C=C3)N4CCNCC4)C(=O)NCC5=C(C=C(NC5=O)C)C)C [GSK126] + CC(=O)Nc1cccc(-n2c(=O)n(C3CC3)c(=O)c3c(Nc4ccc(I)cc4F)n(C)c(=O)c(C)c32)c1 [Trametinib] (partner 0.02 µM)
In outline: as §1

For IA-LM, the relative viability is 0.995 in the experiment with Carboplatin + Alpelisib (first compound 0.08 µM); 0.904 with Carboplatin + Alpelisib (first compound 0.253 µM); 0.669 in the experiment with Carboplatin + Alpelisib (first compound 0.8 µM); 0.881 with Carboplatin + Alpelisib (first compound 2.53 µM); 0.465 with Carboplatin + Alpelisib (first compound 8 µM); 0.836 with Carboplatin + Olaparib (first compound 0.08 µM). Further, the relative viability with Carboplatin + Olaparib (first compound 0.253 µM) was 0.74; with Carboplatin + Olaparib (first compound 0.8 µM), 0.715; with Carboplatin + Olaparib (first compound 2.53 µM), 0.905; in the experiment with Carboplatin + Olaparib (first compound 8 µM), 0.57; in the experiment with GSK126 + Lapatinib (first compound 0.08 µM), 1; with GSK126 + Lapatinib (first compound 0.253 µM), 0.717. Further, the relative viability with GSK126 + Lapatinib (first compound 0.8 µM) turned out to be 0.708; in the experiment with GSK126 + Lapatinib (first compound 2.53 µM), 0.762; with GSK126 + Lapatinib (first compound 8 µM) it was 0.892.
As to LCLC-103H, the relative viability with Carboplatin + Alpelisib (first compound 0.08 µM) was 1.1; in the experiment with Carboplatin + Alpelisib (first compound 0.253 µM), 0.975; with Carboplatin + Alpelisib (first compound 0.8 µM) it was 1.09; in the experiment with Carboplatin + Alpelisib (first compound 2.53 µM), 1; in the experiment with Carboplatin + Alpelisib (first compound 8 µM), 0.934; with Carboplatin + Olaparib (first compound 0.08 µM), 0.754. For the same cell line, the relative viability was 0.783 with Carboplatin + Olaparib (first compound 0.253 µM); 0.777 with Carboplatin + Olaparib (first compound 0.8 µM); 0.74 in the experiment with Carboplatin + Olaparib (first compound 2.53 µM); 0.754 with Carboplatin + Olaparib (first compound 8 µM); 0.71 with GSK126 + Trametinib (first compound 0.08 µM); 0.708 with GSK126 + Trametinib (first compound 0.253 µM). The relative viability with GSK126 + Trametinib (first compound 0.8 µM) was 0.647; with GSK126 + Trametinib (first compound 2.53 µM) it was 0.64; in the experiment with GSK126 + Trametinib (first compound 8 µM) it was 0.725.
As for NCI-H441, the relative viability turned out to be 0.896 with Carboplatin + Alpelisib (first compound 0.08 µM); 0.694 with Carboplatin + Alpelisib (first compound 0.253 µM); 0.643 with Carboplatin + Alpelisib (first compound 0.8 µM); 0.651 with Carboplatin + Alpelisib (first compound 2.53 µM); 0.692 with Carboplatin + Alpelisib (first compound 8 µM); 0.465 in the experiment with Carboplatin + Olaparib (first compound 0.08 µM). For the same cell line, the relative viability with Carboplatin + Olaparib (first compound 0.253 µM) was found to be 0.497; with Carboplatin + Olaparib (first compound 0.8 µM) it was 0.499; with Carboplatin + Olaparib (first compound 2.53 µM), 0.486; with Carboplatin + Olaparib (first compound 8 µM) it was 0.259; with GSK126 + Trametinib (first compound 0.08 µM), 0.538; in the experiment with GSK126 + Trametinib (first compound 0.253 µM), 0.471. The relative viability in the experiment with GSK126 + Trametinib (first compound 0.8 µM) amounted to 0.571; with GSK126 + Trametinib (first compound 2.53 µM), 0.483; with GSK126 + Trametinib (first compound 8 µM) it was 0.343.
Regarding NCI-H522, the relative viability in the experiment with Carboplatin + Olaparib (first compound 0.08 µM) was determined as 0.586; with Carboplatin + Olaparib (first compound 0.253 µM), 0.663; with Carboplatin + Olaparib (first compound 0.8 µM), 0.618; with Carboplatin + Olaparib (first compound 2.53 µM), 0.679; with Carboplatin + Olaparib (first compound 8 µM) it was 0.607; with GSK126 + Trametinib (first compound 0.08 µM), 0.773. In addition, the relative viability with GSK126 + Trametinib (first compound 0.253 µM) was 0.716; in the experiment with GSK126 + Trametinib (first compound 0.8 µM), 0.647; with GSK126 + Trametinib (first compound 2.53 µM), 0.654; in the experiment with GSK126 + Trametinib (first compound 8 µM) it was 0.829.
In the case of NCI-H1299, the relative viability with Carboplatin + Alpelisib (first compound 0.08 µM) came to 1.06; in the experiment with Carboplatin + Alpelisib (first compound 0.253 µM), 1.11; with Carboplatin + Alpelisib (first compound 0.8 µM), 0.997; with Carboplatin + Alpelisib (first compound 2.53 µM) it was 1.02; with Carboplatin + Alpelisib (first compound 8 µM), 0.909; with Carboplatin + Olaparib (first compound 0.08 µM) it was 0.967. Further, the relative viability is 0.969 with Carboplatin + Olaparib (first compound 0.253 µM); 0.96 with Carboplatin + Olaparib (first compound 0.8 µM); 0.947 with Carboplatin + Olaparib (first compound 2.53 µM); 0.826 with Carboplatin + Olaparib (first compound 8 µM); 0.968 with GSK126 + Lapatinib (first compound 0.08 µM); 0.997 with GSK126 + Lapatinib (first compound 0.253 µM). Also, the relative viability is 0.952 with GSK126 + Lapatinib (first compound 0.8 µM), 0.931 with GSK126 + Lapatinib (first compound 2.53 µM) and 0.929 in the experiment with GSK126 + Lapatinib (first compound 8 µM).
For NCI-H1563, the relative viability is 1.04 in the experiment with Carboplatin + Alpelisib (first compound 0.08 µM); 0.925 with Carboplatin + Alpelisib (first compound 0.253 µM); 0.91 with Carboplatin + Alpelisib (first compound 0.8 µM); 0.921 with Carboplatin + Alpelisib (first compound 2.53 µM); 0.984 in the experiment with Carboplatin + Alpelisib (first compound 8 µM); 1.1 in the experiment with GSK126 + Lapatinib (first compound 0.08 µM). The relative viability was 1.04 with GSK126 + Lapatinib (first compound 0.253 µM), 0.957 in the experiment with GSK126 + Lapatinib (first compound 0.8 µM), 0.999 with GSK126 + Lapatinib (first compound 2.53 µM) and 0.869 in the experiment with GSK126 + Lapatinib (first compound 8 µM).
For the cell line NCI-H1648, the relative viability with Carboplatin + Olaparib (first compound 0.08 µM) worked out at 1.39; in the experiment with Carboplatin + Olaparib (first compound 0.253 µM), 1.29; in the experiment with Carboplatin + Olaparib (first compound 0.8 µM) it was 1.21; with Carboplatin + Olaparib (first compound 2.53 µM) it was 0.765; with Carboplatin + Olaparib (first compound 8 µM), 0.897; with GSK126 + Trametinib (first compound 0.08 µM) it was 0.544. The relative viability with GSK126 + Trametinib (first compound 0.253 µM) was 0.959; in the experiment with GSK126 + Trametinib (first compound 0.8 µM) it was 0.409; with GSK126 + Trametinib (first compound 2.53 µM), 0.522; in the experiment with GSK126 + Trametinib (first compound 8 µM) it was 0.445.
On to NCI-H1650, for which the relative viability was determined as 0.85 in the experiment with Carboplatin + Olaparib (first compound 0.08 µM); 0.815 with Carboplatin + Olaparib (first compound 0.253 µM); 0.752 with Carboplatin + Olaparib (first compound 0.8 µM); 0.492 in the experiment with Carboplatin + Olaparib (first compound 2.53 µM); 0.471 with Carboplatin + Olaparib (first compound 8 µM); 0.631 with GSK126 + Trametinib (first compound 0.08 µM). In addition, the relative viability in the experiment with GSK126 + Trametinib (first compound 0.253 µM) was 0.656; with GSK126 + Trametinib (first compound 0.8 µM), 0.428; in the experiment with GSK126 + Trametinib (first compound 2.53 µM) it was 0.578; in the experiment with GSK126 + Trametinib (first compound 8 µM), 0.654; with GSK126 + Lapatinib (first compound 0.08 µM), 0.828; with GSK126 + Lapatinib (first compound 0.253 µM), 0.798. Besides, the relative viability with GSK126 + Lapatinib (first compound 0.8 µM) came to 0.739; with GSK126 + Lapatinib (first compound 2.53 µM), 0.854; with GSK126 + Lapatinib (first compound 8 µM), 0.755.
On to NCI-H1703, for which the relative viability with Carboplatin + Alpelisib (first compound 0.08 µM) was found to be 0.373; with Carboplatin + Alpelisib (first compound 0.253 µM), 0.335; with Carboplatin + Alpelisib (first compound 0.8 µM), 0.417; with Carboplatin + Alpelisib (first compound 2.53 µM) it was 0.407; in the experiment with Carboplatin + Alpelisib (first compound 8 µM), 0.421; with Carboplatin + Olaparib (first compound 0.08 µM), 0.646. Besides, the relative viability in the experiment with Carboplatin + Olaparib (first compound 0.253 µM) worked out at 0.329; in the experiment with Carboplatin + Olaparib (first compound 0.8 µM), 0.453; with Carboplatin + Olaparib (first compound 2.53 µM) it was 0.608; with Carboplatin + Olaparib (first compound 8 µM), 0.325; in the experiment with GSK126 + Lapatinib (first compound 0.08 µM), 1.08; in the experiment with GSK126 + Lapatinib (first compound 0.253 µM), 1.14. The relative viability with GSK126 + Lapatinib (first compound 0.8 µM) was 0.917; with GSK126 + Lapatinib (first compound 2.53 µM) it was 1.23; in the experiment with GSK126 + Lapatinib (first compound 8 µM), 1.09.
In the case of NCI-H2342, the relative viability with Carboplatin + Olaparib (first compound 0.08 µM) is 0.447; with Carboplatin + Olaparib (first compound 0.253 µM), 0.497; in the experiment with Carboplatin + Olaparib (first compound 0.8 µM) it was 0.394; with Carboplatin + Olaparib (first compound 2.53 µM), 0.357; in the experiment with Carboplatin + Olaparib (first compound 8 µM), 0.372; in the experiment with GSK126 + Trametinib (first compound 0.08 µM), 0.786. Besides, the relative viability with GSK126 + Trametinib (first compound 0.253 µM) came out at 0.739; with GSK126 + Trametinib (first compound 0.8 µM), 0.815; in the experiment with GSK126 + Trametinib (first compound 2.53 µM) it was 0.869; with GSK126 + Trametinib (first compound 8 µM) it was 0.984.
Regarding SW 900, the relative viability with Carboplatin + Olaparib (first compound 0.08 µM) came out at 0.814; in the experiment with Carboplatin + Olaparib (first compound 0.253 µM), 0.968; in the experiment with Carboplatin + Olaparib (first compound 0.8 µM), 0.874; with Carboplatin + Olaparib (first compound 2.53 µM), 0.818; with Carboplatin + Olaparib (first compound 8 µM), 0.823; with GSK126 + Trametinib (first compound 0.08 µM), 0.801. Also, the relative viability is 0.507 with GSK126 + Trametinib (first compound 0.253 µM), 0.86 in the experiment with GSK126 + Trametinib (first compound 0.8 µM), 0.901 in the experiment with GSK126 + Trametinib (first compound 2.53 µM) and 0.615 with GSK126 + Trametinib (first compound 8 µM).

The record behind these values is the supplement of paper PMC10307832.
